# Laboratory results from PMC11571031 (Protein Science : A Publication of the Protein Society, 2024).
# Assays:
# CbTan1 = CbTan1 (Clostridium butyricum, UniProt C4IC90)
# CbTan2 = CbTan2 (Clostridium butyricum, UniProt A0A6M0U600)
# CbTan2, sequence (A0A6M0U600 1-490 limits assumed): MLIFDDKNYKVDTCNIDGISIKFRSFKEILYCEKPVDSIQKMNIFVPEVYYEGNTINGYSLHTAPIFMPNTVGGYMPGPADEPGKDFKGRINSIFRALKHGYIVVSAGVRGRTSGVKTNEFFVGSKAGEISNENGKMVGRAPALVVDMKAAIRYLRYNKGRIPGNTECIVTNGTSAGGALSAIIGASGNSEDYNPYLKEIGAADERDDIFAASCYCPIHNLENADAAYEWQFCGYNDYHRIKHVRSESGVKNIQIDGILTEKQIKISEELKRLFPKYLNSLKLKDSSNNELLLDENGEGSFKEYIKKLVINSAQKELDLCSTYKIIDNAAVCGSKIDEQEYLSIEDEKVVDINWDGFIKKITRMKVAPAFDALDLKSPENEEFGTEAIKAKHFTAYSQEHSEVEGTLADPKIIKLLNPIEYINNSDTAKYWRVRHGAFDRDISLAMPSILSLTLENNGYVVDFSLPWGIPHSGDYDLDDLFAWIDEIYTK
# CbTan1, sequence (C4IC90 25-633 limits assumed): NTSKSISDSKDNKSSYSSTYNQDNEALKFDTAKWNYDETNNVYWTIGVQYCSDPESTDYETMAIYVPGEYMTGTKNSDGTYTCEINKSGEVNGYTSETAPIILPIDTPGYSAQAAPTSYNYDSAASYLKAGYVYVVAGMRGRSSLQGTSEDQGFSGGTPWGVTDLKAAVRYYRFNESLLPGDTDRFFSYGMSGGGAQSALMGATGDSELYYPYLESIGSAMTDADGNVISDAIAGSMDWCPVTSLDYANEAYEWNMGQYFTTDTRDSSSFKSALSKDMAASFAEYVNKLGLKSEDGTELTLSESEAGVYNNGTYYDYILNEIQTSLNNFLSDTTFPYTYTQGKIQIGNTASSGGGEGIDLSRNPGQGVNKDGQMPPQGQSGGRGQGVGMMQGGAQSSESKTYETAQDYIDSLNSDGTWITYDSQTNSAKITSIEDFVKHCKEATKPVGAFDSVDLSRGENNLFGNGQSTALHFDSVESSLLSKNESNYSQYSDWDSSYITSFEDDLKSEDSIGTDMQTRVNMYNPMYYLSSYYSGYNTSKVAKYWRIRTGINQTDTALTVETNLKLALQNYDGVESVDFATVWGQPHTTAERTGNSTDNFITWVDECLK
Structure (SMILES),K i (mM) ^a (CbTan1) [mM],K i (mM) ^a (CbTan2) [mM]
"O=C(O[C@@H]1Cc2c(O)cc(O)cc2O[C@@H]1c1cc(O)c(O)c(O)c1)c1cc(O)c(O)c(O)c1 [EGCG, epigallocatechin gallate]",1.11 ± 0.54,1.92 ± 0.59
"O=C(O[C@@H]1O[C@H](CO)[C@@H](O)[C@H](O)[C@H]1O)c1cc(O)c(O)c(O)c1 [GG, β-glucogallin]",35.9 ± 6.77,8.51 ± 2.39
"COC(=O)c1cc(O)c(O)c(O)c1 [MG, methyl gallate]",,44.0 ± 6.42
